# Reference: patent US10870625B2, “Zwitterionic propargyl-linked antifolates useful for treating bacterial infections” (THE UNIVERSITY OF CONNECTICUT, priority 2016, dated 2020)
# Legend:
# Mtb 352 = format: cell-based, Mycobacterium tuberculosis; settings: MDR strain
# Mtb Erdman = Mtb Erdman MIC, microtiter broth dilution; format: cell-based, Mycobacterium tuberculosis
# Experimental: (§1) (provided by Leonid Heifets).
# (§2) Each isolate was tested in duplicate.
# Mtb 56 = format: cell-based, Mycobacterium tuberculosis; settings: MDR strain
# Mtb = test: M. tuberculosis MIC, microtiter broth dilution (Table 6); format: cell-based, Mycobacterium tuberculosis; settings: for MIC: Mycobacterium tuberculosis
# Experimental: as §1, §2
# Mtb C-31 = format: cell-based, Mycobacterium tuberculosis; settings: MDR strain
# Mtb 5 = format: cell-based, Mycobacterium tuberculosis; settings: XDR strain
# Mtb 276 = format: cell-based, Mycobacterium tuberculosis; settings: MDR strain
# Mtb 365 = format: cell-based, Mycobacterium tuberculosis; settings: MDR strain
# MtbDHFR = MtbDHFR (Mycobacterium tuberculosis (strain ATCC 25618 / H37Rv), UniProt P9WNX1); test: M. tuberculosis DHFR enzyme inhibition; format: biochemical
# Sa(H30N) strain [1] = system: Sa(H30N) strain
# [2] = system: S. aureus ATCC strain 43300; test: microbe, parasite or virus in culture; format: cell-based, Staphylococcus aureus; settings: for MIC Sa43300: Table 12, wild-type strain; for MIC: Staphylococcus aureus, ATCC43300, read-out: MIC Sa43300
# Sa43300 [3] = format: cell-based, Staphylococcus aureus; settings: progenitor Sa43300, 6× MIC
# Sa43300 [4] = settings: previously reported studies, S. aureus 43300; cited from earlier work
# Sa(H30N) strain [5] = test: microbe, parasite or virus in culture; settings: Staphylococcus aureus, read-out: MIC Sa(H30N)
# [6] = system: wild-type Gram-negative E. coli; settings: background; cited from earlier work
# [7] = system: methicillin-resistant S. aureus (MRSA); settings: background; cited from earlier work
# [8] = system: E. coli, efflux pumps genetically deleted; settings: background; cited from earlier work
SMILES,MIC Mtb 352 (Mtb 352) [µg/mL],MIC Mtb Erdman (Mtb Erdman) [µg/mL],MIC Mtb56 (Mtb 56) [µg/mL],MIC Mtb (Mtb) [µg/mL],MIC Mtb C-31 (Mtb C-31) [µg/mL],MIC Mtb 5 (Mtb 5) [µg/mL],MIC Mtb 365 (Mtb 365) [µg/mL],MIC Sa(H30N) (Sa(H30N) strain [1]) [µg/mL],MIC Sa43300 [2] [µg/mL],other results
CCc1nc(N)nc(N)c1C#CC(C)c1cc2c(c(-c3cncn3C)c1)OCO2 (stereo not shown) [Compound 54],4,4,8,2,8,8,8,–,–,MIC Mtb 276 (Mtb 276): 4 µg/mL
CCc1nc(N)nc(N)c1C#C[C@H](C)c1cc2c(c(-c3ccncc3)c1)OCO2 [Compound 55],8,8,8,4,16,8,4,–,–,MIC Mtb 276 (Mtb 276): 8 µg/mL; IC50 (MtbDHFR): 206 nM
CCc1nc(N)nc(N)c1C#CCc1cc(-c2cncn2C)ccc1OC [Compound 56],4,4,4,2,8,4,4,–,–,MIC Mtb 276 (Mtb 276): 4 µg/mL; IC50 (MtbDHFR): 126 nM
CCc1nc(N)nc(N)c1C#C[C@@H](C)c1cc(-c2ccncc2)ccc1OC [Compound 57],–,–,–,2,–,–,–,–,–,IC50 (MtbDHFR): 73 nM
CCc1nc(N)nc(N)c1C#CC(C)c1cc(OC)cc(-c2ccc(C(=O)O)cc2)c1 (stereo not shown) [Compound 58],0.06,<0.03,0.06,<0.03,8,0.25,<0.03,–,–,–
CCc1nc(N)nc(N)c1C#CCc1ccc(OC)c(-c2ccc(C(=O)O)cc2)c1 [Compound 59],0.5,0.5,0.5,0.5,8,2,0.125,–,–,IC50 (MtbDHFR): 460 nM
CCc1nc(N)nc(N)c1C#CCc1cc(OC)c(OC)c(-c2ccncc2)c1 [Compound 60],–,–,–,–,–,–,–,0.625,0.0195,–
CCc1nc(N)nc(N)c1C#CC(C)c1cc(OC)cc(-c2ccncc2)c1 (stereo not shown) [Compound A],–,–,–,–,–,–,–,–,–,Mutational Frequency of DHFR mutation F98Y (Sa43300 [3]): 3.11 × 10^−11; Mutational Frequency of DHFR mutation H30N (Sa43300 [3]): 4.67 × 10^−11; Mutational Frequency of DHFR mutation H149R (Sa43300 [3]): 1.65 × 10^−10; mutation frequencies of mutants F98Y and F98I (Sa43300 [4]): 10^−10; MIC [2]: 0.0781 µg/mL; MIC (Sa(H30N) strain [5]): 2.5 µg/mL
"CCc1nc(N)nc(N)c1C#CC(C)c1cc2c(c(-c3ccncc3)c1)OCO2 (stereo not shown) [Compound B, reference compound]",–,–,–,–,–,–,–,5,0.0781,–
"CCc1nc(N)nc(N)c1C#CC(C)c1cc(OC)cc(-c2ccncc2)c1 (stereo not shown) [Compound D, reference compound]",–,–,–,–,–,–,–,0.625,0.0391,–
"CCc1nc(N)nc(N)c1C#C[C@@H](C)c1cc(-c2ccncc2)ccc1OC [E, reference compound]",–,–,–,–,–,–,–,0.625,0.0195,–
"CCc1nc(N)nc(N)c1C#CC(C)c1cc2c(c(-c3ccncc3)c1)OCO2 (stereo not shown) [F, reference compound]",–,–,–,–,–,–,–,2.5,0.0195,–
"NNC(=O)c1ccncc1 [INH, Isoniazid, reference compound]",–,–,–,–,–,–,–,–,–,"MIC (Mtb Erdman; Mycobacterium tuberculosis, ERDMAN): 0.125 µg/mL; MIC (Mtb): 0.03 µg/mL"
"COc1cc(Cc2cnc(N)nc2N)cc(OC)c1OC [TMP, trimethoprim]",–,–,–,–,–,–,–,–,–,MIC [2]: 0.312 µg/mL; MIC (Sa(H30N) strain [5]): 2.5 µg/mL; MIC (Mtb): 256 µg/mL; MIC E. coli [6]: 0.3125 µg/mL; MIC MRSA [7]: 0.3125 µg/mL
CN(Cc1cnc2nc(N)nc(N)c2n1)c1ccc(C(=O)N[C@@H](CCC(=O)O)C(=O)O)cc1 [methotrexate],–,–,–,–,–,–,–,–,–,"MIC E. coli, efflux pumps genetically deleted [8]: 64 to 256 µM; MIC wild-type E. coli [6]: over 1 mM; MIC50 MRSA [7]: 20 µg/mL; MIC90 MRSA [7]: 100 µg/mL"
